These results are taken from ChEMBL document CHEMBL3091298, “Bis-phosphonium salts of pyridoxine: the relationship between structure and antibacterial activity” (Bioorg Med Chem, 2013).

By CC50 is commonly meant the concentration giving 50% cytotoxicity. High values mean better tolerance by the cells, low ones harm at low concentration. Broadly, the MIC is the lowest concentration found to suppress growth. A high value points to a need for much substance.

Data set [1] can be described thus: Genotoxicity in uvrA-deficient Escherichia coli assessed as survival at 1 ug/ml after 6 hrs by DNA-repair test. Type of data set: toxicity, organism-based. The conditions noted are these: read-out: Survival.
Data set [2] in a line: Genotoxicity in uvrA-deficient Escherichia coli assessed as survival at 10 ug/ml after 6 hrs by DNA-repair test. Type of data set: toxicity, organism-based. The conditions noted are these: read-out: Survival.
A short description of data set [3]: Genotoxicity in uvrA-deficient Escherichia coli assessed as survival at 100 ug/ml after 6 hrs by DNA-repair test. Type of data set: toxicity, organism-based. The conditions noted are these: read-out: Survival.
Data set [4] can be described thus: Genotoxicity in polA-deficient Escherichia coli assessed as survival at 1 ug/ml after 6 hrs by DNA-repair test. Type of data set: toxicity, organism-based. The conditions noted are these: read-out: Survival.
Data set [5] can be described thus: Genotoxicity in polA-deficient Escherichia coli assessed as survival at 10 ug/ml after 6 hrs by DNA-repair test. Type of data set: toxicity, organism-based. The following applies: read-out: Survival.
The nature of data set [6]: Genotoxicity in polA-deficient Escherichia coli assessed as survival at 100 ug/ml after 6 hrs by DNA-repair test. Type of data set: toxicity, organism-based. The conditions noted are these: read-out: Survival.
Data set [7] can be described thus: Genotoxicity in recA-deficient Escherichia coli assessed as survival at 1 ug/ml after 6 hrs by DNA-repair test. Type of data set: toxicity, organism-based. The conditions noted are these: read-out: Survival.
Data set [8] can be described thus: Genotoxicity in recA-deficient Escherichia coli assessed as survival at 100 ug/ml after 6 hrs by DNA-repair test. Type of data set: toxicity, organism-based. The following applies: read-out: Survival.
Data set [9] in a line: Genotoxicity in recA-deficient Escherichia coli assessed as survival at 10 ug/ml after 6 hrs by DNA-repair test. Type of data set: toxicity, organism-based. The conditions noted are these: read-out: Survival.
The subject of data set [10] is Salmonella typhimurium. In words: Mutagenic activity in Salmonella typhimurium TA100 assessed as increase in number of revertants at 1 ug/ml by Ames test relative to solvent control. Type of data set: toxicity, organism-based. The conditions noted are these: salmonella enterica subsp. enterica serovar typhimurium. On the technique in general: The Ames test uses bacterial strains that need an amino acid and regain growth without it when mutated back.

The test system of data set [11] is Salmonella typhimurium. In words: Mutagenic activity in Salmonella typhimurium TA100 assessed as increase in number of revertants at 10 ug/ml by Ames test relative to solvent control. Type of data set: toxicity, organism-based. The following applies: salmonella enterica subsp. enterica serovar typhimurium.
Data set [12] deals with HEK293. In words: (§1) Cytotoxicity against HEK293 cells after 72 hrs by MTT assay. Type of data set: cell-based. The following applies: human, hek293, 72 h. A general note: Formazan colour is commonly taken as a measure of viable cells.
Data set [13] has as its system Salmonella typhimurium. In words: Mutagenic activity in Salmonella typhimurium TA100 assessed as increase in number of revertants at 100 ug/ml by Ames test relative to solvent control. Type of data set: toxicity, organism-based. The following applies: salmonella enterica subsp. enterica serovar typhimurium.
The test system of data set [14] is Klebsiella pneumoniae. As to the kind of experiment: Antibacterial activity against Klebsiella pneumoniae after 18 to 24 hrs. Type of data set: functional.
For data set [15], the system named is Proteus sp. In words: Antibacterial activity against Proteus sp. after 18 to 24 hrs. Type of data set: functional. The following applies: Proteus sp. (in: enterobacteria).
Data set [16] has as its system Staphylococcus epidermidis. As to the kind of experiment: Antibacterial activity against Staphylococcus epidermidis after 18 to 24 hrs. Type of data set: functional.
Data set [17] deals with Staphylococcus aureus. As to the kind of experiment: Antibacterial activity against Staphylococcus aureus after 18 to 24 hrs. Type of data set: functional.
Data set [18] is described as follows: as §1. The conditions noted are these: human, HEK293 cells. Type of data set: cell-based.

For `Cc1nc(C[P+](c2ccccc2)(c2ccccc2)c2ccccc2)c(C[P+](c2ccccc2)(c2ccccc2)c2ccccc2)c2c1OC(C)(C)OC2.[Cl-].[Cl-]`, the viability at 6 h, 1 ug/ml was determined as 103% in [1], 114% in data set [4] and 88.8% in data set [7]. Also, the figures for the viability at 6 h, 10 ug/ml in data set [2], in data set [5] and in data set [9] were 114%, 112% and 79.3%, respectively. The figures for the viability at 6 h, 100 ug/ml in [3], in [6] and in data set [8] were 68.9%, 59.4% and 70.1%, respectively. Moreover, the Ratio is given as 0.76 in [10], 0.88 in data set [11] and 0.85 in [13]. In data set [12], this compound had a CC50 of 72 µg/mL. Besides, the MIC in [14] is > 1000 µg/mL; in data set [15] it was > 1000 µg/mL; in data set [16], 5 µg/mL; in data set [17] it was 5 µg/mL.
In the case of `CCCC[P+](CCCC)(CCCC)Cc1nc(C)c2c(c1C[P+](CCCC)(CCCC)CCCC)COC(C)(C)O2.[Cl-].[Cl-]`, the viability at 6 h, 1 ug/ml turned out to be 109% in data set [1], 112% in data set [4] and 88.6% in [7]. The values for the viability at 6 h, 10 ug/ml in data set [2], in [5] and in [9] were 115%, 118% and 82.9%, respectively. Further, the viability at 6 h, 100 ug/ml came out at 66.1% in data set [3], 57.8% in data set [6] and 77.8% in [8]. Moreover, the Ratio in data set [10] is 0.82; in [11] it was 1.21; in data set [13], 1.04. Half-maximal cytotoxicity in data set [18] (CC50 at 72 h) was put at 200 µg/mL. The MIC in data set [14] is > 1000 µg/mL; in data set [15] it was > 1000 µg/mL; in data set [16], 1.25 µg/mL; in data set [17] it was 1.25 µg/mL.
Take `Cc1nc(C[P+](c2ccccc2)(c2ccccc2)c2ccccc2)c(C[P+](c2ccccc2)(c2ccccc2)c2ccccc2)c2c1OC(C)(C)OC2.[Br-].[Br-]`: the CC50 in data set [12] was 27.5 µg/mL. Besides, the MIC was > 1000 µg/mL in data set [14], > 1000 µg/mL in data set [15], 2.5 µg/mL in data set [16] and 1.25 µg/mL in [17].
